Legend:
Assay type in all cases: cell-based
[1] = test system: E. coli DH5α; experiment: Antibacterial activity: MIC and growth curve against E. coli DH5α in 96-well plate; settings: minimal inhibitory concentration against E. coli DH5α; 96-well plate, 5×10^5 CFU/mL, 37° C., judged after 8 h
In short: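 Log-phase bacteria (OD600 ~0.5) resuspended in LB at 5×10^5 CFU/mL, exposed to recombinant protein at 50, 25, 12.5 μg/mL final in triplicate, 37 °C shaking at 175 rpm. OD600 read every 30 min; MIC is lowest concentration showing no growth.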

[2] = test system: E. coli BL21; experiment: MIC against Gram-negative bacteria: E. coli BL21
In short: (§1)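 Antibacterial activity of purified human EGF domain proteins: two-fold concentration series, triplicate wells, LB broth, 5×10^5 CFU/mL bacteria, 37° C shaking incubation. The lowest concentration without growth defines the MIC.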

[3] = test system: Pseudomonas aeruginosa; experiment: MIC against Gram-negative bacteria: Pseudomonas aeruginosa
In short: as §1

[4] = test system: Klebsiella pneumonia; experiment: MIC against Gram-negative bacteria: Klebsiella pneumonia
In short: as §1

[5] = test system: Enterobacter cloacae; experiment: MIC against Gram-negative bacteria: Enterobacter cloacae
In short: as §1

[6] = test system: Aeromonas hydrophila; experiment: MIC against Gram-negative bacteria: Aeromonas hydrophila
In short: as §1

[7] = test system: Citrobacter diversus; experiment: MIC against Gram-negative bacteria: Citrobacter diversus
In short: as §1

[8] = test system: Moraxella catarrhalis; experiment: MIC against Gram-negative bacteria: Moraxella catarrhalis
In short: as §1

[9] = test system: Proteus mirabilis; experiment: MIC against Gram-negative bacteria: Proteus mirabilis
In short: as §1

[10] = test system: Proteus vulgaris; experiment: MIC against Gram-negative bacteria: Proteus vulgaris
In short: as §1

[11] = test system: Serratia marcescens; experiment: MIC against Gram-negative bacteria: Serratia marcescens
In short: as §1

[12] = 10 h cultivation at 37° C., 5×10^5 CFU/mL, two-fold serial dilution
[13] = E. coli BL21, 96-well plate, 5×10^5 CFU/mL, 37° C., 10 h
[14] = Pseudomonas aeruginosa, 96-well plate, 5×10^5 CFU/mL, 37° C., 10 h
[15] = Klebsiella pneumonia, 96-well plate, 5×10^5 CFU/mL, 37° C., 10 h
[16] = Enterobacter cloacae, 96-well plate, 5×10^5 CFU/mL, 37° C., 10 h
[17] = Aeromonas hydrophila, 96-well plate, 5×10^5 CFU/mL, 37° C., 10 h
[18] = Citrobacter diversus, 96-well plate, 5×10^5 CFU/mL, 37° C., 10 h
[19] = Moraxella catarrhalis, 96-well plate, 5×10^5 CFU/mL, 37° C., 10 h
[20] = Proteus mirabilis, 96-well plate, 5×10^5 CFU/mL, 37° C., 10 h
[21] = Proteus vulgaris, 96-well plate, 5×10^5 CFU/mL, 37° C., 10 h
[22] = Serratia marcescens, 96-well plate, 5×10^5 CFU/mL, 37° C., 10 h
[23] = 96-well plate, 5×10^5 CFU/mL, 37° C., 10 h

PRT1352 (SEPECPGNCHLRGRCIDGQCICDDGFTGEDCS; listed as Homo sapiens)
25 µg/mL: MIC against P. mirabilis ([9]; Proteus mirabilis, 5×10^5 CFU/mL, 10 h cultivation at 37° C.) | MIC against S. marcescens ([11]; Serratia marcescens, 5×10^5 CFU/mL, 10 h cultivation at 37° C.)
12.5 µg/mL: MIC [1] | MIC against E. coli BL21 ([2]; E. coli BL21, 5×10^5 CFU/mL, 10 h cultivation at 37° C.) | MIC against P. aeruginosa ([3]; Pseudomonas aeruginosa, 5×10^5 CFU/mL, 10 h cultivation at 37° C.) | MIC against K. pneumonia ([4]; Klebsiella pneumonia, 5×10^5 CFU/mL, 10 h cultivation at 37° C.) | MIC against E. cloacae ([5]; Enterobacter cloacae, 5×10^5 CFU/mL, 10 h cultivation at 37° C.) | MIC against A. hydrophila ([6]; Aeromonas hydrophila, 5×10^5 CFU/mL, 10 h cultivation at 37° C.) | MIC against M. catarrhalis ([8]; Moraxella catarrhalis, 5×10^5 CFU/mL, 10 h cultivation at 37° C.)
50 µg/mL: MIC against C. diversus ([7]; Citrobacter diversus, 5×10^5 CFU/mL, 10 h cultivation at 37° C.) | MIC against P. vulgaris ([10]; Proteus vulgaris, 5×10^5 CFU/mL, 10 h cultivation at 37° C.)

PRT1070 (RPGTCNLQCFNGGSCFLNARRQPKCRCQPRYTGDKCE; listed as Homo sapiens)
12.5 µg/mL: MIC E. coli BL21 [2, 12] | MIC K. pneumonia [4, 12] | MIC A. hydrophila [6, 12] | MIC C. diversus [7, 12] | MIC M. catarrhalis [8, 12] | MIC P. mirabilis [9, 12] | MIC P. vulgaris [10, 12] | MIC S. marcescens [11, 12]
25 µg/mL: MIC [1] | MIC P. aeruginosa [3, 12] | MIC E. cloacae [5, 12]

PRT1227 (NLKLCDASNHCDRHGVCNNFNHCHCEKGYNPPYCQ; listed as Homo sapiens)
25 µg/mL: MIC against E. coli BL21 [2, 13] | MIC against K. pneumonia [4, 15] | MIC against P. vulgaris [10, 21]
50 µg/mL: MIC [1]
12.5 µg/mL: MIC against P. aeruginosa [3, 14] | MIC against E. cloacae [5, 16] | MIC against A. hydrophila [6, 17] | MIC against C. diversus [7, 18] | MIC against M. catarrhalis [8, 19] | MIC against P. mirabilis [9, 20] | MIC against S. marcescens [11, 22]

PRT1005 (LMDLCAQKPCPRNSHCLQTGPSFHCLCLQGWTGPLCN; listed as Homo sapiens)
12.5 µg/mL: MIC ([2]; E. coli BL21, 10 h cultivation at 37° C.) | MIC ([4]; K. pneumonia, 10 h cultivation at 37° C.) | MIC ([8]; M. catarrhalis, 10 h cultivation at 37° C.)
25 µg/mL: MIC ([5]; E. cloacae, 10 h cultivation at 37° C.) | MIC ([7]; C. diversus, 10 h cultivation at 37° C.) | MIC ([9]; P. mirabilis, 10 h cultivation at 37° C.) | MIC ([11]; S. marcescens, 10 h cultivation at 37° C.)
50 µg/mL: MIC [1] | MIC ([3]; P. aeruginosa, 10 h cultivation at 37° C.) | MIC ([6]; A. hydrophila, 10 h cultivation at 37° C.) | MIC ([10]; P. vulgaris, 10 h cultivation at 37° C.)

PRT114 (PKYGCNFNNGGCHQDCFEGGDGSFLCGCRPGFRLLDDLVTCA; listed as Homo sapiens)
12.5 µg/mL: MIC [1] | MIC (μg/mL) E. coli BL21 [2, 13] | MIC (μg/mL) P. aeruginosa [3, 14] | MIC (μg/mL) E. cloacae [5, 16] | MIC (μg/mL) C. diversus [7, 18] | MIC (μg/mL) M. catarrhalis [8, 19] | MIC (μg/mL) P. mirabilis [9, 20] | MIC (μg/mL) P. vulgaris [10, 21] | MIC (μg/mL) S. marcescens [11, 22]
25 µg/mL: MIC (μg/mL) K. pneumonia [4, 15] | MIC (μg/mL) A. hydrophila [6, 17]

PRT497 (CACPHSPPASFSPTCVLEGDHDFRCDACLLGYEGKHCERCSSSYYGNPQTPGGSCQK; listed as Homo sapiens)
50 µg/mL: MIC against P. aeruginosa [3, 23] | MIC against A. hydrophila [6, 23] | MIC against P. mirabilis [9, 23] | MIC against S. marcescens [11, 23]
12.5 µg/mL: MIC [1] | MIC against K. pneumonia [4, 23] | MIC against M. catarrhalis [8, 23] | MIC against P. vulgaris [10, 23]
25 µg/mL: MIC against E. coli BL21 [2, 23] | MIC against E. cloacae [5, 23] | MIC against C. diversus [7, 23]

Reference: patent US9833497B2, “Human originated EGF domain proteins and use of the same” (CHENGDU SOURCEBIO LIMITED-LIABILITY COMPANY, priority 2013, dated 2017)
